Laboratory results as given in US11952364B2, “TRK inhibitors useful as anticancer drugs” (TYLIGAND BIOSCIENCE (SHANGHAI) LIMITED, priority 2018, dated 2024).

Tested on: Ba/F3 ETV6-NTRK2-G639R cells
Experiment: Proliferation of Ba/F3 ETV6-NTRK2-G639R cells (CellTiter-Glo)
Assay type: cell-based
Conditions: Mus musculus, BaF3; Table 6; 72 hours
Description: Ba/F3 ETV6-NTRK2-G639R is a stable transgenic cell line constructed by KYinno Biotechnology Co., Ltd. on mouse primary B cell Ba/F3 wherein NTRK2 is highly expressed with a mutation of G at position 639 to R, and fused with ETV6 to form ETV6-NTRK2. • [Test method]: Promega's CellTiter-Glo® Luminescent Cell Viability Assay kit was used to evaluate the inhibitory activity of the compounds on the proliferation of Ba/F3 ETV6-NTRK2-G639R cells. • [Instrument]: Spectramax M3 multifunctional microplate reader from Molecular Devices. • [Test materials]: Ba/F3 ETV6-NTRK2-G639R cell line (constructed by KYinno Biotechnology Co., Ltd. (Beijing)), 96-well transparent flat-bottomed black-walled cell culture plate (Corning, catalog #3603), RPMI-1640 media (GE, cat #SH30027.01), fetal bovine serum FBS (Thermo Fisher, cat #10099-141), CellTiter-Glo® Luminescent Cell Viability Assay kit (Promega, cat #G7572), PBS (Solarbio, cat #P1020), DMSO (Sigma, cat #D2650). • [Experimental procedure]: When resuscitating Ba/F3 ETV6-NTRK2-G639R cells, the freezing tube was quickly shaken in a 37° C. water bath to melt within 1 minute. The thawed cell suspension was mixed uniformly with RPMI1640 medium containing 10% FBS, centrifuged at 1000 rpm for 5 minutes, and the supernatant discarded. 5 mL of complete medium (RPMI1640 medium with 10% FBS) was taken to resuspend the cell pellets, charged into a cell culture flask with a bottom area of 25 cm^2, and incubated in a cell incubator at 37° C., 95% humidity and 5% CO2. Cells were allowed to passage when the number of cells reached about 10^6 cells/mL. For cell passage, the old cell suspension was directly pipetted evenly, 1/5 of the cell suspension was kept, 4 mL of new complete medium was added, after pipetting evenly, the cell flask was placed in the cell incubator for further culturing. Cell plating was performed when the number of cells reached about 10^6 cells/mL again. For cell plating, 1/5 of the cell suspension was kept for further culturing as in the cell passage method, and the remaining 4/5 of the cell suspension was placed in a 15 mL centrifuge tube, detected for cell viability by Trypan blue exclusion method to ensure that cell viability was above 90%. A cell suspension with a density of 5.56×10^4 viable cells/mL was prepared with complete medium, and 90 μL of such cell suspension was added to a 96-well cell culture plate to obtain the cell density of 5000 viable cells/mL in the cell culture plate. A control group containing no cells, no compound and only complete medium (i.e. culture medium control) and a control group containing no compound but containing cells (i.e. cell control) were set. The cell plate was placed in a cell incubator overnight. The 10 mM compound stock solution in DMSO was first serially diluted with DMSO at a dilution factor of 3.16 times, to obtain 9 concentrations, and the 10th concentration was set as DMSO control without compound. Then, PBS was used to dilute the DMSO solutions of compounds of different concentrations, at a dilution factor of 100 times, so that the DMSO concentration in the compound solution of each concentration was 1%. Finally, 10 μL of each of the above solutions was added to the corresponding cell culture plate, so that the initial compound concentration was 10 μM, with the remaining concentrations being successively diluted at a dilution factor of 3.16 times, and the DMSO content in the cell culture plate was 0.1%. The cell plate was placed in a cell incubator and cultured for 72 hours. For endpoint detection, the CellTiter-Glo reagent was melted, and the cell plate was moved to room temperature to equilibrate for 30 minutes, added with 100 μL of CellTiter-Glo for each well, and shaken on an orbital shaker for 5 minutes to fully lyse the cells. The plate was kept at room temperature for 20 minutes to stabilize the luminescence signal, and the luminescence value of each well was scanned with a multi-functional microplate reader at full wavelength. • [Test samples] […]

IC50 [µM] | Structure (SMILES)
> 10 | O=C(Nc1cnn2ccc(N3CCC[C@@H]3c3cc(F)ccc3F)nc12)N1CC[C@H](O)C1 [LOXO-101, Larotrectinib, reference compound]
9.87 | CCn1ncc2cc(Oc3ccc(NC(=O)c4ccc(C)n(-c5ccc(F)cc5)c4=O)cc3F)c(-c3cn[nH]c3)cc21 [Example 3, N-(3-fluoro-4-(1-ethyl-6-(1H-pyrazol-4-yl)-1H-indazol-5-yloxy)phenyl)-1-(4-fluorophenyl)-6-methyl-2-oxo-1,2-dihydmpyridine-3-carboxamide]
3.12 | Cn1ncc2cc(Oc3ccc(NC(=O)c4ccc(C(F)(F)F)n(-c5ccc(F)cc5)c4=O)cc3F)c(-c3cn[nH]c3)cc21 [Example 1, N-(3-fluoro-4-(1-methyl-6-(1H-pyrazol-4-yl)-1H-indazol-5-yloxy)phenyl)-1-(4-fluorophenyl)-6-trifluoromethyl-2-oxo-1,2-dihydmpyridine-3-carboxamide monomethanesulfonate]
> 10 | Cc1ccc(C(=O)Nc2ccc(Oc3cc4cnn(C(C)C)c4cc3-c3cn[nH]c3)c(F)c2)c(=O)n1-c1ccc(F)cc1 [Example 4, N-(3-fluoro-4-(1-isopropyl-6-(1H-pyrazol-4-yl)-1H-indazol-5-yloxy)phenyl)-1-(4-fluorophenyl)-6-methyl-2-oxo-1,2-dihydmpyridine-3-carboxamide]
2.79 | CC(C)c1ccc(C(=O)Nc2ccc(Oc3cc4cnn(C)c4cc3-c3cn[nH]c3)c(F)c2)c(=O)n1-c1ccc(F)cc1 [Example 6, N-(3-fluoro-4-(1-methyl-6-(1H-pyrazol-4-yl)-1H-indazol-5-yloxy)phenyl)-1-(4-fluorophenyl)-6-isopropyl-2-oxo-1,2-dihydropyridine-3-carboxamide]
1.88 | Cn1ncc2cc(Oc3ccc(NC(=O)c4ccc(C5CC5)n(-c5ccc(F)cc5)c4=O)cc3F)c(-c3cn[nH]c3)cc21 [Example 2, N-(3-fluoro-4-(1-methyl-6-(1H-pyrazol-4-yl)-1H-indazol-5-yloxy)phenyl)-1-(4-fluorophenyl)-6-cyclopropyl-2-oxo-1,2-dihydmpyridine-3-carboxamide]
3.04 | Cc1ccc(C(=O)Nc2ccc(Oc3cc4cnn(C)c4cc3-c3cn[nH]c3)c(F)c2)c(=O)n1-c1ccc(F)cc1 [Merestinib, reference compound]
2.69 | CCc1ccc(C(=O)Nc2ccc(Oc3cc4cnn(C)c4cc3-c3cn[nH]c3)c(F)c2)c(=O)n1-c1ccc(F)cc1 [Example 5, N-(3-fluoro-4-(1-methyl-6-(1H-pyrazol-4-yl)-1H-indazol-5-yloxy)phenyl)-1-(4-fluorophenyl)-6-ethyl-2-oxo-1,2-dihydropyridine-3-carboxamide]
